The test deals with Rat2 fibroblasts. The test is described as follows: Time-lapse videomicroscopy random migration assay (cell speed, polarity). It counts as cell-based, rat. Conditions: Rat2 cells. Here is the method:
Cells adapted to microscopy media (Life Technologies, Rockville, Md.) as described above were trypsinized, counted, and resuspended in microscopy media at 7.14×10^3 cells/mL. 1.4 mL (10,000 cells) of this cell suspension was added to a ΔT dish (Bioptechs Inc., Butler, Pa.) that had previously been coated overnight with 10 μg/mL fibronectin (Becton Dickinson) at 4° C. and then blocked with lmg/mL cell-culture-grade BSA (Sigma, St. Louis, Mo.). Cells were allowed to attach and spread for 1 hour at 37° C. before movies were initiated. 10x phase contrast movies were 4.5 hours long with a frame taken every five minutes. A custom time-lapse collection script written in IPLabs was used to automate microscope and camera function. Light was shutter controlled. […] Cell paths were generated from the calculated centroid positions and parameters (speed and membrane flow) were calculated from the resulting path file. Speed was calculated using the Central Difference Method in DIAS, which is equivalent to a root mean squared calculation. […]
Rat 2 cells were exposed to 0, 5 nM, 25 nM, 50 nM, or 500 nM cytochalasin D and motility was measured. One set of cells received no cytochalasin D. Other cells received a low dose of cytochalasin D (e.g. 5 nM or 25 nM) or a high dose of cytochalasin D. (e.g. 500 nM) The motility of the treated cells was assessed using the motility assay described above.

Consider `C=C1[C@@H](C)[C@H]2[C@H](Cc3ccccc3)NC(=O)[C@]23[C@H](OC(C)=O)/C=C/[C@@](C)(O)C(=O)[C@@H](C)C/C=C/[C@H]3[C@@H]1O` [cytochalasin D, reference compound], for which the cell speed entry was “increased” (25 nM (low dose)) and “decreased” (500 nM (high dose)).

The values are drawn from patent publication US6716597B2, “Methods and products for regulating cell motility” (priority 2000, dated 2004).
